Reference: US6584980B1, “Tobacco products with stabilized additives having vitamin E activity” (Rousseau Research, Institute, priority 1998, dated 2003)

Experiments:
[1] = test system: non-tobacco user; experiment: Comparison of a normal smokeless tobacco wad and a wad with dry Vitamin E analog, placed between cheek and gum; type: in vivo; details: 0.1 grams mixed with 10.0 grams SKOAL long cut smokeless tobacco, 1.0 gram wad between cheek and gum
Excerpt: A third comparison was made between a normal wad of smokeless tobacco and a wad of smokeless tobacco modified to include a substantially pure, “dry” form of Vitamin E analog. For this comparison, 1.0 gram of unmodified SKOAL® long cut smokeless tobacco (i.e., snuff) was first placed in the mouth of a non-tobacco user between the cheek and gum. This unmodified smokeless tobacco produced a pleasant flavor but also a simultaneous burning sensation in the mouth, throat and esophagus which, along with an induced cough, forced the non-tobacco user to spit out the unmodified smokeless tobacco. To clear the burning sensation from mouth, the non-tobacco user washed mouth out with water. Nonetheless, the burning sensation persisted in the mouth and throat for over 5 minutes after the initial washing.
Approximately four hours later, long enough to ensure the sensitivity and the burning sensation had completely subsided, the non-tobacco user then mixed 0.1 grams of Vitamin E acid succinate obtained from the Eastman Chemical Corporation of Kingsport, Tenn. with 10.0 grams of SKOAL® long cut smokeless tobacco. A 1.0 gram wad of this Vitamin E modified smokeless tobacco was then placed in the mouth of the non-tobacco user between the cheek and gum. Like the unmodified snuff, this Vitamin E modified snuff produced a similar pleasant flavor.

[2] = test system: smoker and non-smoker; experiment: Comparison of a normal filterless cigarette and a filterless cigarette with dry Vitamin E analog, smoked; type: in vivo
Excerpt: A comparison was made between a normal filterless cigarette and a filterless cigarette modified to include a substantially pure, “dry” form of Vitamin E analog. For this comparison, […] of CHESTERFIELD® tobacco were removed from a CHESTERFIELD® cigarette and mixed with 0.1 grams of Vitamin E acid succinate. The mixed tobacco blend was formed into a filterless cigarette using a Rizla auto rolling box. A control cigarette, without Vitamin E analog additive, was also formed using the same Rizla auto rolling box.

[3] = test system: non-smoker; experiment: Comparison of a normal filtered cigarette and cigarettes with oily Vitamin E injected into the filter or the tobacco, puffs by a non-smoker; type: in vivo; details: for lung irritation and coughing: three puffs, non-smoker
Excerpt: A second comparison was made between a normal filtered cigarette, a filtered cigarette with oily Vitamin E injected into the filter and oily Vitamin E injected into the length of the tobacco. In this second comparison, the control cigarette was a normal MARLBORO® cigarette. In two separate MARLBORO® cigarettes, oily Vitamin E was taken from a Vitamin E capsule with a syringe and injected into the filter of one cigarette and into the length of the tobacco of the other cigarette.
The three cigarettes where then lit with a butane lighter and three equal, alternating puffs were taken from each cigarette by a non-smoker. […] The cigarette with Vitamin E along the length of the tobacco yielded no irritation. Moreover, the flavor of the Vitamin E tobacco cigarette gave the impression of having been enhanced.

[4] = stand-alone additive, apart from an alcohol mixture; cited from earlier work
[5] = tobacco air curing, vacuum infiltration; cited from earlier work

Question: For `Cc1c(C)c2c(c(C)c1OC(=O)CCC(=O)O)CC[C@@](C)(CCC[C@H](C)CCC[C@H](C)CCCC(C)C)O2` [Vitamin E acid succinate, d-alpha tocopheryl acid succinate], which “irritation (burning sensation) of mouth, throat and esophagus” value [1] is on record?
Answer: The value was “completely non-irritating”.

Question: What about the “throat or lung irritation when smoked” value ([2]; 0.1 grams mixed with 7.5 grams CHESTERFIELD tobacco, filterless cigarette, smoker and non-smoker, control caused throat and lung irritation) of the same molecule?
Answer: Its value is “no throat or lung irritation”.

Question: And the “throat or lung irritation, retest on the same samples” value ([2]; retest after several days and again after several weeks)?
Answer: The value was “the same results”.

Question: Which results are given for `Cc1c(C)c2c(c(C)c1O)CC[C@@](C)(CCC[C@H](C)CCC[C@H](C)CCCC(C)C)O2` [Vitamin E, d-alpha tocopherol]?
Answer: lung irritation and coughing ([3]; oily Vitamin E injected into the filter of a MARLBORO cigarette, control irritated lungs and induced coughing): less irritating but still induced an unpleasant lung reaction and a slight cough; lung irritation and coughing ([3]; oily Vitamin E injected into the length of the tobacco of a MARLBORO cigarette): no irritation; beneficial effect on irritation, retest on the same samples ([3]; retest after several days, taken to indicate the Vitamin E had oxidized/metabolized): the beneficial effect was gone; neutralizing NNN [4]: ineffective

Question: With `Cc1c(C)c2c(c(C)c1O)CC[C@@](C)(CCC[C@H](C)CCC[C@H](C)CCCC(C)C)O2` [alpha-tocopherol] as the molecule, how does the “diminution in concentration during the curing process” value [5] read?
Answer: Its value is 25%.
